Values quoted from earlier work in publication PMC12281572.

Assay: FTIR, 4-fluorophenol as donor (the pK_BHX database, per the paper)
Settings: CCl4; 25 C

| SMILES | pK_BHX (log10 Kf of the 1:1 H-bond complex with 4-fluorophenol, by FTIR) |
| --- | --- |
| O=C1c2ccccc2Cc2ccccc21 | 1.25 log units |
| CCN(CC)C(=O)C(C)(C)C | 2.13 log units |
| CC(=O)c1ccc(C(F)(F)F)cc1 | 0.78 log units |
| CC(=Nc1ccc(Br)cc1)N(C)c1ccccc1 | 1.36 log units |
| CC(C)(C)OC(C)(C)C | 0.75 log units |
| Cc1ccc2c(c1)CN1CN2Cc2cc(C)ccc21 | -0.26 log units |
| C1=COCCC1 | 0.41 log units |
| [O-][n+]1ccc(Cl)cc1 | 2.44 log units |
| O=P(c1ccccc1)(c1ccccc1)c1ccccc1 | 3.16 log units |
| Cc1cc(C)c(C)cc1C | -0.15 log units |
| CC(=O)Nc1ccccc1 | 1.69 log units |
| C#CCCC#C | -0.43 log units |
| CS(=O)c1ccc([N+](=O)[O-])cc1 (stereo not shown) | 1.58 log units |
| C1OCOCO1 | 0.02 log units |
| CC(C)(C)Br | -0.22 log units |
| CC(C)(C)C(=O)C12CC3CC(CC(C3)C1)C2 | 1.08 log units |
| COc1ccc(OC)cc1 | 0.12 log units |
| FC1C2CC3CC(C2)C(F)C1C3 (stereo not shown) | 0.48 log units |
| Clc1ccncc1 | 1.54 log units |
| CCc1ccc(C(C)=O)cc1 | 1.25 log units |
| c1ccc(Nc2ccccc2)cc1 | -0.3 log units |
| O=C1CCCCCCCCCCC1 | 1.23 log units |
| CCOC(=O)C1CC1 | 1.12 log units |
| CCOC(=O)OCC | 0.88 log units |
| COc1ccc(N=C(c2ccccc2)N(C)c2ccccc2)cc1 | 1.53 log units |

| SMILES | pK_BHX (log10 Kf of the 1:1 H-bond complex with 4-fluorophenol, by FTIR) |
| --- | --- |
| CC(=S)N(C)C | 1.22 log units |
| CN1CCCC1 | 2.19 log units |
| c1cc(N2CCCC2)ccn1 | 2.93 log units |
| CCCCN(C=O)CCCC | 2.17 log units |
| O=COc1ccccc1 | 0.35 log units |
| c1ccc(N=C(Nc2ccccc2)c2ccccc2)cc1 | 1.29 log units |
| CCOC(=O)C=CN(C)C | 2.09 log units |
| C1=COCC1 | 0.53 log units |
| Cc1ccc(N(C)C)cc1 | 0.69 log units |
| CCCC(=O)c1ccccc1 | 1.04 log units |
| CCCCCC#N | 0.89 log units |
| Cc1cnc2c(ccc3c(C)c(C)cnc32)c1C | 3.46 log units |
| CC(C)N(C=O)C(C)C | 2.24 log units |
| CN(C)C(=O)c1ccc([N+](=O)[O-])cc1 | 1.9 log units |
| CC(=Nc1ccccc1)N(C)c1cccc(Cl)c1 | 1.44 log units |
| CCOCCOCC | 1.09 log units |
| N#CC1CCCC1 | 0.88 log units |
| CCN(CC)C(=O)Cl | 1.08 log units |
| NCc1cccc(F)c1 | 1.58 log units |
| Cc1cc(C(C)(C)C)nc(C(C)(C)C)c1 | -0.45 log units |
| CN1CCCCCC1=O | 2.53 log units |
| CC(=NC(=S)N(C)C)N(C)C | 2.06 log units |
| O | 0.65 log units |
| CC(C)O | 1.06 log units |
| N#CN1CCOCC1 | 1.34 log units |

| SMILES | pK_BHX (log10 Kf of the 1:1 H-bond complex with 4-fluorophenol, by FTIR) |
| --- | --- |
| CC1COC(=O)O1 (stereo not shown) | 1.22 log units |
| S=C1CCCCCN1 | 1.6 log units |
| c1ccsc1 | -0.5 log units |
| c1ccc2nc3ccccc3cc2c1 | 1.95 log units |
| COC(=O)c1ccccc1OC | 1.49 log units |
| CCCCN1CCCC1 | 2.04 log units |
| COc1ccc(N(C)C(=Nc2ccc(C)cc2)c2ccccc2)cc1 | 1.63 log units |
| CC(C)N(C)C | 2.11 log units |
| O=c1occo1 | 0.69 log units |
| CN(C)Cc1cccc(F)c1 | 1.27 log units |
| CN(C)C=CC#N | 1.7 log units |
| COCOC | 0.58 log units |
| CNc1ccc(Cl)cc1 | 0.05 log units |
| CCC(=O)NC | 2.24 log units |
| [O-][n+]1ccc(-c2ccccc2)cc1 | 2.85 log units |
| CN(C)C(=O)C(C)(C)C | 2.1 log units |
| C(=NCc1ccccc1)c1ccccc1 | 1.18 log units |
| COC=O | 0.65 log units |
| CC(=O)c1ccc(C(C)(C)C)cc1 | 1.25 log units |
| CC(C)=C(C)C | -0.85 log units |
| O=C(Cl)N(c1ccccc1)c1ccccc1 | 0.75 log units |
| COc1cccc(C)c1 | 0.05 log units |
| CC1(C)CC(=O)C=C(Cl)C1 | 1.21 log units |
| COC(=O)c1ccccc1 | 0.89 log units |
| CN(C)C=NCc1ccccc1 | 2.35 log units |

| SMILES | pK_BHX (log10 Kf of the 1:1 H-bond complex with 4-fluorophenol, by FTIR) |
| --- | --- |
| C=CCN=CN(C)C | 2.48 log units |
| CCC(C)=O | 1.22 log units |
| Cn1cncc1Br | 2.22 log units |
| C=Cc1ccncc1 | 1.95 log units |
| c1ccc2ncccc2c1 | 1.89 log units |
| C#CC(C)=O | 0.68 log units |
| CC12CCC(CC1=O)C2(C)C (stereo not shown) | 1.31 log units |
| Clc1cccnc1 | 1.31 log units |
| c1ncncn1 | 0.32 log units |
| CC(=Nc1ccccc1)N(C)c1ccc(C)cc1 | 1.76 log units |
| CC(C)(C)c1ccncc1 | 2.11 log units |
| c1ccc(CNCc2ccccc2)cc1 | 1.34 log units |
| COC(=O)N(c1ccccc1)c1ccccc1 | 1.41 log units |
| CN=C(c1ccc(Br)cc1)N(C)C | 2.19 log units |
| CNC(C)=O | 2.3 log units |
| C#CCN=CN(C)C | 2.3 log units |
| CCCN=CN(C)C | 2.59 log units |
| C1CNCCN1 | 2.11 log units |
| CCN(C=O)CC | 2.16 log units |
| CN(C)C(=O)C12CC3CC(CC(C3)C1)C2 | 2.3 log units |
| CN(C(=Nc1ccc(Br)cc1)c1ccccc1)c1ccc(Br)cc1 | 0.99 log units |
| COc1cccc(CN=CN(C)C)c1 | 2.4 log units |
| CC(=NC(=S)SCc1ccccc1)N(C)C | 1.49 log units |
| CC1CCN(c2ccncc2)CC1 | 2.68 log units |
| O=S1OCCO1 | 0.87 log units |
